# Reference: patent US6358885B1, “Substituted phenylheterocyclic herbicides” (Mississippi State University, priority 1992, dated 2002)
# Key:
# Assay in all cases: Test B preemergence/postemergence greenhouse plant response rating 0 to 10
# barley = assay type: in vivo, Hordeum vulgare; settings: for Plant response rating, Barley: 0 to 10 scale
# Outline: (§1)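 Test chemicals, dissolved in a non-phytotoxic solvent, were applied to soil at planting and, at the same time, over foliage of seedlings at the one to four leaf stage.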
# barnyardgrass = assay type: in vivo, Echinochloa crus-galli; settings: for Plant response rating, Barnyardgrass: 0 to 10 scale
# Outline: as §1
# blackgrass = assay type: in vivo, Alopecurus myosuroides; settings: for Plant response rating, Blackgrass: 0 to 10 scale
# Outline: as §1
# chickweed = assay type: in vivo, Stellaria media; settings: for Plant response rating, Chickweed: 0 to 10 scale
# Outline: as §1
# corn = assay type: in vivo, Zea mays; settings: for Plant response rating, Corn: 0 to 10 scale
# Outline: as §1
# sorghum = assay type: in vivo, Sorghum bicolor; settings: for Plant response rating, Sorghum: 0 to 10 scale; for Plant response rating (0 to 10 scale), Sorghum: Rate 100 g/ha
# Outline: as §1
# sugar beet = assay type: in vivo, Beta vulgaris; settings: for Plant response rating, Sugar beet: 0 to 10 scale; for Plant response rating (0 to 10 scale), Sugar beet: Rate 100 g/ha
# Outline: as §1
# velvetleaf = assay type: in vivo, Abutilon theophrasti; settings: for Plant response rating, Velvetleaf: 0 to 10 scale
# Outline: as §1
# purple nutsedge = assay type: in vivo, Cyperus rotundus; settings: for Plant response rating, Nutsedge: 0 to 10 scale; for Plant response rating (0 to 10 scale), Nutsedge: Rate 100 g/ha
# Outline: as §1
smiles,measurement,setting,value
Clc1ccc(-c2nc3n(c2Cl)CCC=C3)c(Cl)c1 [Compound 1],"Plant response rating (0 to 10 scale), Barley","barley; POSTEMERGENCE, Rate 50 g/ha",3
same,"Plant response rating, Barley","barley; POSTEMERGENCE, Rate 200 g/ha",3
same,"Plant response rating, Barley","barley; PREEMERGENCE, Rate 50 g/ha",0
same,"Plant response rating, Barley","barley; Rate 200 g/ha, PREEMERGENCE",0
same,"Plant response rating (0 to 10 scale), Barnyardgrass","barnyardgrass; POSTEMERGENCE, Rate 50 g/ha",2
same,"Plant response rating, Barnyardgrass","barnyardgrass; POSTEMERGENCE, Rate 200 g/ha",3
same,"Plant response rating, Barnyardgrass","barnyardgrass; PREEMERGENCE, Rate 50 g/ha",0
same,"Plant response rating, Barnyardgrass","barnyardgrass; Rate 200 g/ha, PREEMERGENCE",0
same,"Plant response rating (0 to 10 scale), Blackgrass","blackgrass; POSTEMERGENCE, Rate 50 g/ha",0
same,"Plant response rating, Blackgrass","blackgrass; POSTEMERGENCE, Rate 200 g/ha",1
same,"Plant response rating, Blackgrass","blackgrass; PREEMERGENCE, Rate 50 g/ha",0
same,"Plant response rating, Blackgrass","blackgrass; Rate 200 g/ha, PREEMERGENCE",0
same,"Plant response rating (0 to 10 scale), Chickweed","chickweed; POSTEMERGENCE, Rate 50 g/ha",0
same,"Plant response rating, Chickweed","chickweed; POSTEMERGENCE, Rate 200 g/ha",2
same,"Plant response rating, Chickweed","chickweed; PREEMERGENCE, Rate 50 g/ha",0
same,"Plant response rating, Chickweed","chickweed; Rate 200 g/ha, PREEMERGENCE",0
same,"Plant response rating (0 to 10 scale), Corn","corn; POSTEMERGENCE, Rate 50 g/ha",2
same,"Plant response rating, Corn","corn; POSTEMERGENCE, Rate 200 g/ha",2
same,"Plant response rating, Corn","corn; PREEMERGENCE, Rate 50 g/ha",0
same,"Plant response rating, Corn","corn; Rate 200 g/ha, PREEMERGENCE",0
same,"Plant response rating, Sorghum","sorghum; POSTEMERGENCE, Rate 50 g/ha",4
same,"Plant response rating, Sorghum","sorghum; POSTEMERGENCE, Rate 200 g/ha",4
same,"Plant response rating, Sorghum","sorghum; PREEMERGENCE, Rate 50 g/ha",0
same,"Plant response rating, Sorghum","sorghum; Rate 200 g/ha, PREEMERGENCE",0
same,"Plant response rating, Sugar beet","sugar beet; POSTEMERGENCE, Rate 50 g/ha",8
same,"Plant response rating, Sugar beet","sugar beet; POSTEMERGENCE, Rate 200 g/ha",10
same,"Plant response rating, Sugar beet","sugar beet; PREEMERGENCE, Rate 50 g/ha",0
same,"Plant response rating, Sugar beet","sugar beet; Rate 200 g/ha, PREEMERGENCE",0
same,"Plant response rating, Velvetleaf","velvetleaf; POSTEMERGENCE, Rate 50 g/ha",3
same,"Plant response rating, Velvetleaf","velvetleaf; POSTEMERGENCE, Rate 200 g/ha",8
same,"Plant response rating, Velvetleaf","velvetleaf; PREEMERGENCE, Rate 50 g/ha",0
same,"Plant response rating, Velvetleaf","velvetleaf; Rate 200 g/ha, PREEMERGENCE",0
same,"Plant response rating, Nutsedge","purple nutsedge; POSTEMERGENCE, Rate 50 g/ha",0
same,"Plant response rating, Nutsedge","purple nutsedge; POSTEMERGENCE, Rate 200 g/ha",0
same,"Plant response rating, Nutsedge","purple nutsedge; Rate 200 g/ha, PREEMERGENCE",0
Clc1ccc(-c2nc3n(c2Br)CCCC3)c(Cl)c1 [Compound 2],"Plant response rating (0 to 10 scale), Barley","barley; POSTEMERGENCE, Rate 50 g/ha",2
same,"Plant response rating (0 to 10 scale), Barley","barley; POSTEMERGENCE, Rate 100 g/ha",2
same,"Plant response rating, Barley","barley; POSTEMERGENCE, Rate 200 g/ha",3
same,"Plant response rating, Barley","barley; POSTEMERGENCE, Rate 400 g/ha",2
same,"Plant response rating, Barley","barley; PREEMERGENCE, Rate 50 g/ha",0
same,"Plant response rating (0 to 10 scale), Barley","barley; PREEMERGENCE, Rate 100 g/ha",0
same,"Plant response rating, Barley","barley; PREEMERGENCE, Rate 400 g/ha",0
same,"Plant response rating, Barley","barley; Rate 200 g/ha, PREEMERGENCE",0
same,"Plant response rating (0 to 10 scale), Barnyardgrass","barnyardgrass; POSTEMERGENCE, Rate 50 g/ha",3
same,"Plant response rating (0 to 10 scale), Barnyardgrass","barnyardgrass; POSTEMERGENCE, Rate 100 g/ha",3
same,"Plant response rating, Barnyardgrass","barnyardgrass; POSTEMERGENCE, Rate 200 g/ha",3
same,"Plant response rating, Barnyardgrass","barnyardgrass; POSTEMERGENCE, Rate 400 g/ha",5
same,"Plant response rating, Barnyardgrass","barnyardgrass; PREEMERGENCE, Rate 50 g/ha",0
same,"Plant response rating (0 to 10 scale), Barnyardgrass","barnyardgrass; PREEMERGENCE, Rate 100 g/ha",0
same,"Plant response rating, Barnyardgrass","barnyardgrass; PREEMERGENCE, Rate 400 g/ha",2
same,"Plant response rating, Barnyardgrass","barnyardgrass; Rate 200 g/ha, PREEMERGENCE",0
same,"Plant response rating (0 to 10 scale), Blackgrass","blackgrass; POSTEMERGENCE, Rate 50 g/ha",1
same,"Plant response rating (0 to 10 scale), Blackgrass","blackgrass; POSTEMERGENCE, Rate 100 g/ha",1
same,"Plant response rating, Blackgrass","blackgrass; POSTEMERGENCE, Rate 200 g/ha",1
same,"Plant response rating, Blackgrass","blackgrass; POSTEMERGENCE, Rate 400 g/ha",2
same,"Plant response rating, Blackgrass","blackgrass; PREEMERGENCE, Rate 50 g/ha",0
same,"Plant response rating (0 to 10 scale), Blackgrass","blackgrass; PREEMERGENCE, Rate 100 g/ha",0
same,"Plant response rating, Blackgrass","blackgrass; PREEMERGENCE, Rate 400 g/ha",0
same,"Plant response rating, Blackgrass","blackgrass; Rate 200 g/ha, PREEMERGENCE",0
same,"Plant response rating (0 to 10 scale), Chickweed","chickweed; POSTEMERGENCE, Rate 50 g/ha",1
same,"Plant response rating (0 to 10 scale), Chickweed","chickweed; POSTEMERGENCE, Rate 100 g/ha",2
same,"Plant response rating, Chickweed","chickweed; POSTEMERGENCE, Rate 200 g/ha",2
same,"Plant response rating, Chickweed","chickweed; POSTEMERGENCE, Rate 400 g/ha",2
same,"Plant response rating, Chickweed","chickweed; PREEMERGENCE, Rate 50 g/ha",0
same,"Plant response rating (0 to 10 scale), Chickweed","chickweed; PREEMERGENCE, Rate 100 g/ha",0
same,"Plant response rating, Chickweed","chickweed; PREEMERGENCE, Rate 400 g/ha",0
same,"Plant response rating, Chickweed","chickweed; Rate 200 g/ha, PREEMERGENCE",0
same,"Plant response rating (0 to 10 scale), Corn","corn; POSTEMERGENCE, Rate 50 g/ha",3
same,"Plant response rating (0 to 10 scale), Corn","corn; POSTEMERGENCE, Rate 100 g/ha",3
same,"Plant response rating, Corn","corn; POSTEMERGENCE, Rate 200 g/ha",4
same,"Plant response rating, Corn","corn; POSTEMERGENCE, Rate 400 g/ha",4
same,"Plant response rating, Corn","corn; PREEMERGENCE, Rate 50 g/ha",0
same,"Plant response rating (0 to 10 scale), Corn","corn; PREEMERGENCE, Rate 100 g/ha",0
same,"Plant response rating, Corn","corn; PREEMERGENCE, Rate 400 g/ha",0
same,"Plant response rating, Corn","corn; Rate 200 g/ha, PREEMERGENCE",0
same,"Plant response rating, Sorghum","sorghum; POSTEMERGENCE, Rate 50 g/ha",4
same,"Plant response rating (0 to 10 scale), Sorghum",sorghum; POSTEMERGENCE,4
same,"Plant response rating, Sorghum","sorghum; POSTEMERGENCE, Rate 200 g/ha",5
same,"Plant response rating, Sorghum","sorghum; POSTEMERGENCE, Rate 400 g/ha",5
same,"Plant response rating, Sorghum","sorghum; PREEMERGENCE, Rate 50 g/ha",0
same,"Plant response rating (0 to 10 scale), Sorghum",sorghum; PREEMERGENCE,0
same,"Plant response rating, Sorghum","sorghum; PREEMERGENCE, Rate 400 g/ha",0
same,"Plant response rating, Sorghum","sorghum; Rate 200 g/ha, PREEMERGENCE",0
same,"Plant response rating, Sugar beet","sugar beet; POSTEMERGENCE, Rate 50 g/ha",9
same,"Plant response rating (0 to 10 scale), Sugar beet",sugar beet; POSTEMERGENCE,9
same,"Plant response rating, Sugar beet","sugar beet; POSTEMERGENCE, Rate 200 g/ha",10
same,"Plant response rating, Sugar beet","sugar beet; POSTEMERGENCE, Rate 400 g/ha",10
same,"Plant response rating, Sugar beet","sugar beet; PREEMERGENCE, Rate 50 g/ha",0
same,"Plant response rating (0 to 10 scale), Sugar beet",sugar beet; PREEMERGENCE,0
same,"Plant response rating, Sugar beet","sugar beet; Rate 200 g/ha, PREEMERGENCE",0
same,"Plant response rating, Velvetleaf","velvetleaf; POSTEMERGENCE, Rate 50 g/ha",9
same,"Plant response rating (0 to 10 scale), Velvetleaf","velvetleaf; POSTEMERGENCE, Rate 100 g/ha",8
same,"Plant response rating, Velvetleaf","velvetleaf; POSTEMERGENCE, Rate 200 g/ha",8
same,"Plant response rating, Velvetleaf","velvetleaf; POSTEMERGENCE, Rate 400 g/ha",9
same,"Plant response rating, Velvetleaf","velvetleaf; PREEMERGENCE, Rate 50 g/ha",0
same,"Plant response rating, Velvetleaf","velvetleaf; PREEMERGENCE, Rate 400 g/ha",4
same,"Plant response rating, Velvetleaf","velvetleaf; Rate 200 g/ha, PREEMERGENCE",0
same,"Plant response rating, Nutsedge","purple nutsedge; POSTEMERGENCE, Rate 50 g/ha",0
same,"Plant response rating (0 to 10 scale), Nutsedge",purple nutsedge; POSTEMERGENCE,0
same,"Plant response rating, Nutsedge","purple nutsedge; POSTEMERGENCE, Rate 200 g/ha",0
same,"Plant response rating, Nutsedge","purple nutsedge; POSTEMERGENCE, Rate 400 g/ha",0
same,"Plant response rating, Nutsedge","purple nutsedge; PREEMERGENCE, Rate 50 g/ha",0
same,"Plant response rating (0 to 10 scale), Nutsedge",purple nutsedge; PREEMERGENCE,0
same,"Plant response rating, Nutsedge","purple nutsedge; PREEMERGENCE, Rate 400 g/ha",0
same,"Plant response rating, Nutsedge","purple nutsedge; Rate 200 g/ha, PREEMERGENCE",0
